# Data: patent US20140341922A1, “Method for Overcoming Tolerance to Targeted Anti-Cancer Agent” (SUN R&DB Foundation, priority 2011, published 2014)
# System: IGF-1R, EGFR, Src, Akt, mTOR phosphorylation
# Test: Western blot of IGF-1R, EGFR, Src, Akt signaling after cixutumumab
# Format: cell-based, human
# Description: Preparation of total cell lysates, Western blot analysis, and immunoprecipitation were performed according to methods described in our previous report (Morgillo et al., 2006).
# Total cell lysates were immunoprecipitated with antibodies against integrin β3, integrin β1, or IgG. The precipitates with protein A agarose were resolved by sodium dodecyl sulfate-polyacrylamide gel electrophoresis (SDS-PAGE) and transferred to a polyvinylidene difluoride (PVDF) membrane. Western blot analysis was performed using specific Abs described as follows, and antigen-antibody complexes were visualized using enhanced chemiluminescence plus kits (Amersham Biosciences, Piscataway, N.J.).
# The present inventors investigated the mechanisms involved in the resistance to cixutumumab treatment in HNSCC and NSCLC cells. cixutumumab resistant (LN686, FADU, 226B, 226Br, H596, and H460) or -sensitivity (UMSCC38, OSC19, H1299, and A549m) lines grown in TCP, PCP, UAP, or soft agar were untreated or treated with 25 μg/ml of cixutumumab for 6 h, and then were stimulated with IGF-1 for 30 min. Expression of several proteins were analyzed by Western blot analysis.
# Cixutumumab-resistant (LN686, FADU, 226B, 226Br, H596, and H460) or -sensitive (UMSCC38, OSC19, H1299, and A549m) cell lines grown in PCP were untreated or treated with 25 μg/ml of cixutumumab for 7 days, and then were stimulated with 10% FBS for 30 min. Expression of several proteins were analyzed by western blot analysis.
# Because cross-talk between EGFR and IGF-1R signalings have been proposed as a major mechanism of a resistance to TKIs of IGF-1R and EGFR (Buck et al., 2008; Morgillo et al., 2006), the present inventors next examined whether cixutumumab treatment induces activation of EGFR and Akt phosphorylation. After cixutumumab-resistant (LN686, FADU, 226B, 226Br, H596, and H460) or -sensitive (UMSCC38, OSC19, H1299, and A549m) cell lines grown in PCPs were treated with cixutumumab, 10% FBS was treated for 30 min. Several phosphorylated proteins and actin were analyzed by western blot analysis. In addition, densitometric analysis was performed to quantify the expression of the proteins for comparisons between cixutumumab-treated and control cells treated with vehicle.
# The LN686 cells grown in PCP were treated with cixutumumab (25 μg/ml) for indicated times prior to stimulation with 10% FBS (FIGS. 14 and 15) or IGF-1 (100 ng/ml) (FIGS. 16 and 17) in the presence or absence of anti-human IGF-1 neutralizing monoclonal antibody (αIGF-1) (FIGS. 15 and 16) for indicated times (FIG. 16) or for 30 min (FIGS. 14, 15, and 17). Immunoprecipitation with whole proteins or integrin β3 antibodies was performed on the presented proteins, and expression of the proteins was analyzed by western blot analysis.
# In addition, LN686 cells grown in PCP were treated with cixutumumab (25 μg/ml) for 7 days in the absence of FBS. The results obtained by analyzing p-IGF-1R (Y1131), IGF-1R, p-Src (Y416), Src, p-EGFR (Y845), p-EGFR (Y1068), EGFR, p-Akt (S473), and Akt using western blot analysis. LN686 cells stimulated with 10% serum for 30 min were included as a control.
substance,measurement,setting,value
"cixutumumab: humanized mAb targeting IGF-1R, provided by ImClone Systems","IGF-1-induced IGF-1R and Akt phosphorylation, and total IGF-1R expression","25 μg/mL for 6 h, LN686 and OSC19 cells in TCPs, PCPs, UAPs, soft agar",effectively suppressed
same,"phosphorylation of Akt and downstream effectors mTOR, p70S6K, S6",LN686 (cixutumumab-resistant),not to inhibit or to even increase
same,time IGF-1R remained dephosphorylated,"LN686 in PCP, 25 μg/ml, no change in IGF-1R level",3 h
same,"levels of p-IGF-1R, p-EGFR (Y845), p-Src (Y416), and p-Akt (S473)","LN686 in PCP, 30 min pretreatment, 10% FBS stimulation",decreased
same,"phosphorylation of Src, FAK, EGFR (Y845), Akt, mTOR","LN686 in PCP, one hour treatment, 10% FBS stimulation",rapidly rephosphorylated
same,"phosphorylation of Akt and downstream effectors mTOR, p70S6K, S6",OSC19 (cixutumumab-sensitive),inhibited
same,"EGFR, Src, or Akt phosphorylation","cixutumumab alone, absence of IGF-1 stimulation, LN686",failed to induce
same,phosphorylation of EGFR at Src-specific site (Y845) and of Src (Y416),"cixutumumab-resistant lines in PCPs, 7 days, 10% FBS 30 min",increased
same,phosphorylation of EGFR at Tyr1068,"drug-resistant lines in PCPs, 7 days, 10% FBS 30 min",increased
